2 compounds from paper PMC8712285, “Thermococcus sp. KS-1 PPIase as a fusion partner improving soluble production of aromatic amino acid decarboxylase” (AMB Express, 2021) can be followed below.

The target in one assay is T1, NusA-AADC (Pseudomonas putida, UniProt Q88JU5).
T1 construct: gene PP_2552; E. coli BL21(DE3)
Description: HPLC of dopamine formation, cell-free extract. The assay is classed as biochemical. Conditions: 1 mM L-dopa, 50 uM PLP, 2 mM 2-ME, 50 mM potassium phosphate pH 8.0, 30 °C.

Assay [1] has as its target T2, AADC (aromatic amino acid decarboxylase) (Pseudomonas putida, UniProt Q88JU5).
T2 construct: gene PP_2552; full-length, untagged, from pET-3a (pAADC) in E. coli BL21(DE3)
The experiment in a line: HPLC of dopamine formation, cell-free extract. The assay is classed as biochemical. Conditions: 1 mM L-dopa, 50 uM PLP, 2 mM 2-ME, 50 mM potassium phosphate pH 8.0, 30 °C.

Assay [2] addresses T3, PPIase KS-1-AADC (Pseudomonas putida, UniProt Q88JU5).
T3 construct: gene PP_2552; AADC with N-terminal solubility partner Thermococcus sp; not cut; E. coli BL21(DE3)
The experiment in a line: HPLC of dopamine formation, cell-free extract. It is filed as biochemical. Conditions: 1 mM L-dopa, 50 uM PLP, 2 mM 2-ME, 50 mM potassium phosphate pH 8.0, 30 °C.

For assay [3], the target named is T3, PPIase KS-1-AADC. The experiment in a line: HPLC (AccQ-tag) of phenylethylamine produced by recombinant E. coli cells. The assay is classed as cell-based. Conditions: 1 mM L-phenylalanine, M9 minimal medium, 25 °C, whole cells.

The structures appear in SMILES notation.

T3 sequence (Q88JU5 entry or part of it): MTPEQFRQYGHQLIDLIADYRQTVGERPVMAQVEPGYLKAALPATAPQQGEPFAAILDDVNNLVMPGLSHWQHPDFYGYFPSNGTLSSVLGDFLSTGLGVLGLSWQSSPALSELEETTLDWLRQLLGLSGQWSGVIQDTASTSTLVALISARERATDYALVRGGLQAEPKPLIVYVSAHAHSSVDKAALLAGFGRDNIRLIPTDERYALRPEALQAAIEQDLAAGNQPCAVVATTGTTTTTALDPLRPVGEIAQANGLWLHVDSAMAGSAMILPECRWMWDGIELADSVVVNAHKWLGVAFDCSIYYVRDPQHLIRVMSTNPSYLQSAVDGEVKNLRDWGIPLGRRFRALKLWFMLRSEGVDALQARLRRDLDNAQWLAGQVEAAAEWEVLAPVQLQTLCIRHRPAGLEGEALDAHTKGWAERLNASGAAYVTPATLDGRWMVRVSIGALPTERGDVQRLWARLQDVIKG
T2 sequence (Q88JU5 entry or part of it): as above
T1 sequence (Q88JU5 entry or part of it): as above

For the compound `N[C@@H](Cc1ccc(O)c(O)c1)C(=O)O` [L-dopa], the “HPLC of dopamine formation, cell-free extract” value is given as “the AADC activity toward L-dopa was significantly higher in PPIase KS−1-AADC as compared to NusA-AADC” on NusA-AADC, “The AADC activity was measured using these cell-free extracts” in assay [1] and “the AADC activity toward L-dopa was significantly higher in PPIase KS−1-AADC as compared to NusA-AADC” at PPIase KS-1-AADC [2].

In the case of `N[C@@H](Cc1ccccc1)C(=O)O` [L-phenylalanine], at PPIase KS-1-AADC [3], the “HPLC (AccQ-tag) of phenylethylamine produced by recombinant E. coli cells” value is recorded as “Phenylethylamine accumulation was also higher in PPIase KS−1-AADC-producing strain”.
